Like-named read-outs stand apart in the source and are kept apart here.
Tests used:
HSP27 mRNA in A431 cells = experiment: HSP27 gene silencing (HSP27 mRNA expression, qPCR); format: cell-based; details: saponin titrated + 50 nM Trastuzumab-HSP27BNA
Text: RNA from cells was isolated and analysed according to standard protocols (Biorad).

HeLa cells [1] = experiment: Cell toxicity (MTS), saponin alone; format: cell-based
Method: (§1) Cell viability was determined by an MTS-assay, performed according to the manufacturer's instruction (CellTiter 96® AQueous One Solution Cell Proliferation Assay, Promega). Briefly, the MTS solution was diluted 20× in DMEM without phenol red (PAN-Biotech GmbH) supplemented with 10% FBS (PAN-Biotech GmbH). The cells were washed once with 200 μL PBS per well, after which 100 μL diluted MTS solution was added per well. The plate was incubated for approximately 20-30 minutes at 37° C. Subsequently, the optical density at 492 nm was measured on a Thermo Scientific Multiskan FC plate reader (Thermo Scientific). For quantification the background signal of ‘medium only’ wells was subtracted from all other wells, before the ratio of untreated/treated cells was calculated, by dividing the background corrected signal of untreated wells over the background corrected signal of the treated wells.

[2] = tested on: human red blood cells (RBC); experiment: Haemolysis assay; format: cell-based; details: fresh human red blood cells
Method: Red blood cells (RBCs) were isolated from a buffy coat using a Ficoll gradient. The obtained RBC pellet (˜4-5 ml) was washed 2× with 50 ml DPBS (without Ca^2+/Mg^2+, PAN-Biotech GmbH). Cells were pelleted by centrifugation for 10 min, 800×g at RT. RBC were counted and resuspended at 500.000.000 c/ml in DPBS (without Ca^2+/Mg^2+), based on total cell count. SO1861-linker dilutions were prepared in DPBS (with Ca^2+/Mg^2+, PAN-Biotech GmbH), at 1.11× final strength. For positive lysis control a 0.02% Triton-X100 solution was prepared in DPBS^+/+. Of all compound solutions 135 μl was dispensed/well in a 96 well V-bottom plate. To this 15 μl RBC suspension was added and mixed shortly (10 sec—600 rpm). The plate was incubated 30 min at RT, with gentle agitation. Afterwards the plate was spun for 10 min at 800×g to pellet the RBC and 100-120 μl supernatant was transferred to a standard 96 wp. Subsequently, the OD at 405 nm was measured on a Thermo Scientific Multiskan FC plate reader (Thermo Scientific). For quantification the background signal of ‘DPBS^+/+ only’ wells was subtracted from all other wells before the percentage of hemolysis was calculated in comparison to 0.02% Triton-X100, by dividing the background corrected signal of treated wells over the background corrected signal of the 0.02% Triton-X100 wells (×100).

[3] = CMC determination (ANS fluorescence); format: physicochemical
Method: The critical micellar concentration (CMC) of saponins derived from Saponaria Officinalis (SO) was determined by the method of DeVendittis et al. (www.sciencedirect.com/science/article/pii/0003269781900063, doi.org/10.1016/0003-2697(81)90006-3, Analytical Biochemistry, Volume 115, Issue 2, August 1981, Pages 278-286) as follows: The emission spectrum of 8-Anilinonaphthalene-1-sulfonic acid (ANS) in either purified water (MQ) or PBS (Dulbecco's PBS+/+) was determined at dry weight concentrations of saponins ranging from 1 to 1400 μM to cover the range below and above the CMC. Above the CMC, the fluorescence yield of ANS increases and the wavelength of maximum emission decreases due to portioning of the fluorescent dye into micelles. Fluorescence yields were recorded on a Fluoroskan Ascent FL (Thermo Scientific) at an excitation wavelength of 355 nm, and an emission wavelength of 460 nm. 6 μg at a concentration of 75.86 μM of ANS were used per sample and measurement.

A431 cells [4] = experiment: Cell killing assay (MTS): saponin titrated on fixed non-effective concentration of targeted toxin (endosomal escape enhancing activity); format: cell-based
Method: as §1

HeLa cells [5] = experiment: as above; format: cell-based; details: for IC50: read-out: IC50 nM (Activity; + 5 pM EGFdianthin), HeLa cells, + 5 pM EGFdianthin
Method: as §1

A431 cells [6] = experiment: Cell toxicity (MTS), saponin alone; format: cell-based
Method: as §1

[7] = tested on: apoB RNA in primary human hepatocytes; experiment: apoB RNA expression analysis (qRT-PCR) after 72 hr treatment; format: cell-based; details: read-out: IC50 apoB RNA levels
Method: RNA from cells was isolated using TRI Reagent® Solution (Thermo Scientific) according to the manufacturer's instruction. Conversion into cDNA was performed using iScript™ cDNA Synthesis Kit (BioRad) using standard protocols. ApoB expression levels and levels of specific hepatocyte housekeeping genes were determined using quantitative real-time PCR assays (qRT-PCR) using iTaq™ Universal SYBR® Green Supermix (BioRad) and the Light Cycler 480 (Roche Diagnostics, Rotkreuz, Switzerland) with specific DNA primers, listed in Table A4. Analysis was done by the ΔCt method to determine ApoB expression relative to 2 hepatocyte-specific housekeeping control mRNAs. Each analysis reaction was performed in triplicate.
Covalent binding of the saponin to the GalNAc/oligonucleotide conjugate via a semicarbazone bond thus results in increased efficacy when relative apoB RNA levels are considered and compared with levels measured in cells which were contacted with a conjugate comprising saponin linked via a hydrazone bond to the GalNAc/oligonucleotide conjugate. Without wishing to be bound by any theory, improved efficacy of the release of free saponin from the conjugate, when the conjugate is transferred into the endosome, is at the basis for the improved potency of the oligonucleotide, as obtained with the conjugate comprising saponin bound via semicarbazone. […]

apoB RNA in liver tissue = experiment: In vivo efficacy: apoB RNA in liver tissue (qRT-PCR); set-up: species or system C57BL/6J mice; details: for reduction of liver apoB RNA compared to vehicle: study A
Method: (§2) In Vivo Tolerability and Efficacy of Trivalent GalNAc-Conjugates in a C57BL/6J Model • Dose administration and in-life phase. Per group, 8 C57BL/6J male mice for treatment groups (in study A, 14 mice in vehicle control group), approximately 6-7 weeks at arrival and 8-9 weeks at dosing, were dosed. The compounds, formulated in PBS or PBS alone (vehicle) according to Table A5 and Table A6, were dosed at 5 ml/kg in the tail vain (intravenously, iv), with dose volumes corresponding to the individual bodyweights. Where applicable, trivalent (GalNAc)3-SO1861 (EMCH) was co-administered at 5 ml/kg in the tail vain (iv) right after the trivalent GalNAc-ApoB conjugate. Animals were weighed weekly and clinical observations were performed 2-3 times daily within the first 48 hrs, and at least once daily thereafter until study end. • Sampling of serum, liver, and kidney tissue. […] At the relevant inter-study post-dose timepoints, 3 animals per timepoint per treatment group (6 animals in the vehicle control group in study A) were sacrificed to collect terminal bleeds and collect relevant organs, such as liver and kidney tissues for further analyses. at end of study, the remaining 2 animals (4 in the control group in study A) per group were sacrificed. One half of the liver and one kidney was frozen and used for tissue RNA analysis.
The mRNA was isolated from frozen liver tissue using TRizol® Reagent (Thermo Scientific) according to the manufacturer's instruction. Conversion into cDNA was performed using iScript™ cDNA Synthesis Kit (BioRad). ApoB expression levels and levels of specific liver housekeeping genes were determined using quantitative real-time PCR assays (qRT-PCR) using iTaq™ Universal SYBR® Green Supermix (BioRad) and the Light Cycler 480 (Roche Diagnostics, Rotkreuz, Switzerland) with specific DNA primers, listed in Table A4 (study A) and Table A7 (study B), respectively. Analysis was done by the ΔCt method to determine ApoB expression relative to 2 liver-specific housekeeping control mRNAs. Each analysis reaction was performed in triplicate.

apoB protein in serum = experiment: In vivo efficacy: serum apoB protein (ELISA); set-up: species or system C57BL/6J mice; details: study B; 2 mg/kg; 72 hrs post-dose
Method: as §2, with “[…] […]” for “The compounds, formulated in PBS or PBS alone (vehicle) according to Table A5 and Table A6, were dosed at 5 ml/kg in the tail vain (intravenously, iv), with dose volumes corresponding to the individual bodyweights. Where applicable, trivalent (GalNAc)3-SO1861 (EMCH) was co-administered at 5 ml/kg in the tail vain (iv) right after the trivalent GalNAc-ApoB conjugate.”
ApoB protein levels in mouse serum was determined using an ApoB ELISA (ab230932, Abcam, Cambridge, UK), according to the manufacturer's instruction.

[8] = tested on: serum LDL-cholesterol (LDL-C); experiment: In vivo efficacy: serum LDL-cholesterol; set-up: species or system C57BL/6J mice
Method: as §2
LDL-cholesterol was measured in mouse serum, using an LDL-cholesterol specific two-step AU480 assay kit, respectively, from Beckman Coulter, with a photometric measurement according to the manufacturer's instructions.

[9] = In vivo tolerability: clinical observations, body weight, serum ALT; set-up: species or system C57BL/6J mice; details: study A; doses and dose regimens of Table A5, iv
Method: In Vivo Tolerability and Efficacy of Trivalent GalNAc-Conjugates in a C57BL/6J Model • Dose administration and in-life phase. Per group, 8 C57BL/6J male mice for treatment groups (in study A, 14 mice in vehicle control group), approximately 6-7 weeks at arrival and 8-9 weeks at dosing, were dosed. The compounds, formulated in PBS or PBS alone (vehicle) according to Table A5 and Table A6, were dosed at 5 ml/kg in the tail vain (intravenously, iv), with dose volumes corresponding to the individual bodyweights. Where applicable, trivalent (GalNAc)3-SO1861 (EMCH) was co-administered at 5 ml/kg in the tail vain (iv) right after the trivalent GalNAc-ApoB conjugate. Animals were weighed weekly and clinical observations were performed 2-3 times daily within the first 48 hrs, and at least once daily thereafter until study end. • Sampling of serum, liver, and kidney tissue. […]
Serum alanine transaminase (ALT) levels was measured using an AU480 assay kit from Beckman Coulter (photometric measurements), according to the manufacturer's instructions.

CC(=O)OC1C(C)OC(OC2C(C)OC(OC(=O)[C@]34CCC(C)(C)CC3C3=CCC5[C@@]6(C)CC[C@H](OC7OC(C(=O)O)C(O)C(OC8OCC(O)C(O)C8O)C7OC7OC(CO)C(O)C(O)C7O)[C@@](C)(C=NNC(=O)N7CCN(C(=O)CCCCCN8C(=O)C=CC8=O)CC7)C6CC[C@@]5(C)[C@]3(C)C[C@H]4O)C(OC3OC(C)C(OC4OCC(O)C(OC5OC(CO)C(O)C(O)C5O)C4O)C(O)C3O)C2O)C(O)C1OC1OCC(O)C(O)C1O (some centres unmarked) [SO1861-SC-Mal]
IC50 (HSP27 mRNA in A431 cells): 600 nM | IC50 (HeLa cells [1]): > 100000 nM | IC50 [2]: 250000 nM | CMC ([3]; listed as SO1861-Semicarbazone Mal): >800 µM | CMC ([3]; listed as SO1861-semicarbazone Mal): >800 µM

CC(=O)O[C@H]1[C@H](O[C@@H]2OC[C@@H](O)[C@H](O)[C@H]2O)[C@@H](O)[C@H](O[C@@H]2[C@H](O)[C@@H](O[C@@H]3O[C@@H](C)[C@H](O[C@@H]4OC[C@@H](O)[C@H](O[C@@H]5O[C@H](CO)[C@@H](O)[C@H](O)[C@H]5O)[C@H]4O)[C@@H](O)[C@H]3O)[C@H](OC(=O)[C@]34CCC(C)(C)C[C@H]3C3=CC[C@@H]5[C@@]6(C)CC[C@H](O[C@@H]7O[C@H](C(=O)O)[C@@H](O)[C@H](O[C@@H]8OC[C@@H](O)[C@H](O)[C@H]8O)[C@H]7O[C@@H]7O[C@H](CO)[C@H](O)[C@H](O)[C@H]7O)[C@@](C)(C=O)[C@@H]6CC[C@@]5(C)[C@]3(C)C[C@H]4O)O[C@@H]2C)O[C@@H]1C [SO1861]
IC50 (A431 cells [4]; Homo sapiens, A-431, read-out: IC50 nM (Activity; + 5 pM EGFdianthin), + 5 pM EGFdianthin): 300 nM | activity compared with the SO1861 derivatives (HeLa cells [5]; HeLa and A431, + 5 pM EGFdianthin or 10 pM cetuximab-saporin or 50 pM Trastuzumab-saporin): strongest activity | IC50 (HeLa cells [5]; Homo sapiens): 500 nM | IC50 (A431 cells [6]; Homo sapiens, A-431): 2000 nM | IC50 (HeLa cells [1]; Homo sapiens): 9000 nM | IC50 ([2]; Erythrocyte): 10000 nM | CMC [3]: 120 µM

CC(=O)OC1C(C)OC(OC2C(C)OC(OC(=O)[C@]34CCC(C)(C)CC3C3=CCC5[C@@]6(C)CC[C@H](OC7OC(C(=O)O)C(O)C(OC8OCC(O)C(O)C8O)C7OC7OC(CO)C(O)C(O)C7O)[C@@](C)(/C=N/NC(=O)CCCCCN7C(=O)C=CC7=O)C6CC[C@@]5(C)[C@]3(C)C[C@H]4O)C(OC3OC(C)C(OC4OCC(O)C(OC5OC(CO)C(O)C(O)C5O)C4O)C(O)C3O)C2O)C(O)C1OC1OCC(O)C(O)C1O (some centres unmarked) [SO1861-EMCH]
IC50 (A431 cells [4]; + 50 pM Trastuzumab-saporin, read-out: IC50 cell killing): 2500 nM | IC50 (A431 cells [4]; read-out: IC50 nM (Activity; + 5 pM EGFdianthin), + 5 pM EGFdianthin): 3000 nM | IC50 (HeLa cells [5]): 4000 nM | IC50 (A431 cells [6]): > 30000 nM | IC50 (HeLa cells [1]): > 100000 nM | IC50 [2]: > 500000 nM

5′-GCattggtatTCA-3′ (GCATTGGTATTCA; listed as DNA, chemistry not fully specified) [ApoB #02 BNA]
IC50 ([7]; relative ApoB #02 BNA concentration, no transfection agent (FIG. 19A)): 400 nM | IC50 ([7]; transfection with RNAi-MAX): 8 nM | reduction of liver apoB RNA compared to vehicle (apoB RNA in liver tissue; 0.1 mg/kg iv, 24 hrs): not noticeably reduced | reduction of liver apoB RNA compared to vehicle (apoB RNA in liver tissue; 1 mg/kg iv, 24 hrs): ~15% | reduction of liver apoB RNA compared to vehicle (apoB RNA in liver tissue; 2 mg/kg iv, 24 hrs): ~21% | reduction of liver apoB RNA compared to vehicle (apoB RNA in liver tissue; 2 mg/kg iv, 72 hrs): 39% | reduction of liver apoB RNA compared to vehicle (apoB RNA in liver tissue; 2 mg/kg iv, 336 hrs): 30% | liver apoB RNA levels, % of vehicle control (apoB RNA in liver tissue; study B, 2 mg/kg, 72 hrs): 53% | serum apoB protein (apoB protein in serum): 57 µg/mL | reduction of serum LDL-C compared to vehicle ([8]; study A, 2 mg/kg, 72 hrs): ca. 50% | reduction of serum LDL-C compared to vehicle ([8]; study A, 2 mg/kg, 336 hrs): ca. 40% | serum LDL-C levels compared to vehicle ([8]; study A, 0.1, 1, or 2 mg/kg, 24 hrs): not noticeably reduced | serum LDL-C ([8]; study B, 2 mg/kg, 72 hrs post-dose): 2 mg/dL | tolerability (clinical observations) [9]: well tolerated

From patent US20240066045A1, “SEMICARBAZONE-BASED SAPONIN CONJUGATE” (priority 2020, published 2024)
